“Also recorded” adds a separate entry of the source.
Columns and labels:
[1] = test system: human platelet-mediated thrombus formation; assay: In vivo human thrombus formation, laser injury, VWF HA1 mice model; settings: platelets preincubated with BTK inhibitor (0.1, 0.5 or 1 μM)
[2] = test system: Th17 cells; assay: CD4+ T cell skewing culture, Th17; format: cell-based; settings: FIG. 24
Protocol: (§1) Enriched CD4^+ T cells are plated on 24-well culture dishes that have been precoated 2 hr with 250 μL anti-TCRP3 (0.5 μg/mL) plus anti-CD28 (5 μg/mL) at 37° C. in PBS. The cells are then supplemented with media containing BTK inhibitors along with the skewing cytokines as indicated in the following. The Th17 and Treg cultures are grown for 4 days before analysis. The cells are maintained for an additional 3 days with skewing cytokines (Th17; 20 ng/mL IL-6, 0.5 ng/mL TGF-β, […] Treg; 0.5 ng/mL TGF-β, 5 μg/mL IL-4, 5 μg/mL IFN-γ) and are supplemented with IL2 as a growth factor.

[3] = test system: NK cells; assay: Antibody-dependent NK cell degranulation, CD107a flow cytometry; format: cell-based, human; settings: rituximab-coated DHL-4 target cells
[4] = test system: platelet collagen receptor glycoprotein VI (GPVI); assay: GPVI (convulxin-induced) platelet aggregation; format: cell-based, human; settings: for inhibition of GPVI platelet aggregation: FIG. 16 and FIG. 17
Protocol: GPVI platelet aggregation was measured for Formula (II) and ibrutinib. Blood was obtained from untreated humans, and platelets were purified from […] by centrifugation. Cells were resuspended to a final concentration of 350,000/μL in buffer containing 145 mmol/L NaCl, 10 mmol/L HEPES, 0.5 mmol/L Na2HPO4, 5 mmol/L KCl, 2 mmol/L MgCl2, 1 mmol/L CaCl2, and 0.1% glucose, at pH 7.4. Stock solutions of […] were prepared on the day of experimentation and added to platelet suspensions 5 minutes (37° C., 1200 rpm) before the induction of aggregation. Aggregation was assessed with a Chronolog Lumi-Aggregometer (model 540 VS; Chronolog, Havertown, Pa.) and permitted to proceed for 6 minutes after the addition of agonist. The results are reported as maximum percent change in light transmittance from baseline with platelet buffer used as a reference.
In FIG. 17, the results of CVX-induced (250 ng/mL) human platelet aggregation results before and 15 minutes after administration of the BTK inhibitors to 6 healthy individuals are shown.

[5] = In vitro metabolism in hepatocytes with 14C-labeled compound; format: in vitro ADME, mouse, rat, dog, rabbit, monkey, and human
[6] = test system: CYP enzymes; assay: Nonclinical CYP interaction studies; format: in vitro ADME
[7] = Preliminary evaluation of metabolism in plasma, bile and urine; format: in vivo; settings: bile, urine of rats, dogs, monkeys
[8] = test system: BCR activation markers CD69 and CD86; assay: In vivo potency: IgM-stimulated BCR activation markers by flow cytometry; settings: mice gavaged, 3 h post-dose, BCR stimulated with IgM
Protocol: Mice were gavaged at increasing drug concentration and sacrificed at one time point (3 h post-dose). BCR is stimulated with IgM and the expression of activation markers CD69 and CD86 are monitored by flow cytometry to determine EC50's.
CD86 and CD69 are cell surface proteins that are BCR activation markers. […] BCR was stimulated with IgM and the expression of activation marker CD69 and CD86 are monitored by flow cytometry and to determine EC50 values.

[9] = test system: canine spontaneous B-cell lymphoma; assay: Study of canine spontaneous B-cell lymphoma; format: in vivo, dogs; settings: 2.5 mg/kg once daily oral
Description: Formula (II) is currently being evaluated in an ongoing study of canine spontaneous B-cell lymphoma. […] To date, partial remission (PR), per Veterinary Cooperative Oncology Group criteria for assessment of response in peripheral nodal lymphoma, has been observed in 2 of 6 dogs. D. M. Vali, et al., Vet. Comp. Oncol. 8, 28-37 (2010). […] L. A. Honigberg, et al., Proc. Nat. Acad. Sci. USA, 107, 13075-13080 (2010).

[10] = Cardiovascular function study in awake telemeterized beagle dogs; format: in vivo; settings: male beagle dogs, single doses through 30 mg/kg
Description: (§2) Formula (II) was well tolerated in standard in vivo Good Laboratory Practices (GLP) studies of pharmacologic safety.

[11] = test system: EGFR phosphorylation; assay: In vitro EGFR phosphorylation in A431 cells; format: cell-based; settings: 10 μM, A431 human epidermoid cancer cell line
[12] = Study of respiratory function in rats; format: in vivo; settings: doses through 300 mg/kg
Description: as §2

[13] = test system: regulatory T cell (Treg) development; assay: CD4+ T cell skewing culture, Treg; format: cell-based; settings: FIG. 25
Protocol: as §1

[14] = test system: NK cells and monocytic MDSC subsets; assay: Flow cytometry of peripheral blood cell subsets in CLL patients; format: in vivo, human; settings: patients with falling ALC counts, 28 days of dosing
Protocol: PBMCs were stained with monoclonal antibodies conjugated to fluorescent tags (flourochromes) to identify cell subsets via flow cytometry. Non-viable cells were excluded from the analysis using the dye 7-aminoactinomycin D (7-AAD). To produce the metric of percent change, the following steps were taken. First, each cell subset was defined by hierarchical flow cytometry gating. Then, the change in frequency (between day 1 and day 28) was calculated for each cell subset. MDSC subsets were measured as a % of all myeloid cells. T cell subsets were measured as a % of all CD3^+ cells, and NK cells were measured as a % of all live CD45^+ cells. […] A cycle is 28 days. A trend is observed wherein patients with decreasing ALC % had increasing MDSC (monocytic) %. This may include patients who had quickly resolving lymphocytosis and those with no initial lymphocytosis. […] This may include patients who had quickly resolving lymphocytosis and those having no initial lymphocytosis. The effects in FIG. 9 to FIG. 12 are observed in multiple cohorts, at doses including 100 mg BID, 200 mg QD, and 400 mg QD. In FIG. 13 and FIG. 14, the effects on NK cells and MDSC cells are compared to a number of other markers versus % change in ALC at C1D28 and C2D28. These other markers include CD4+ T cells, CD8+ T cells, CD4+/CD8+ T cell ratio, NK-T cells, PD-1+CD4+ T cells, and PD-1+CD8+ T cells. […]

[15] = test system: relapsed/refractory CLL
[16] = test system: 80 known pharmacologic targets such as G-protein-coupled receptors, nuclear receptors, proteases, and ion channels; assay: Binding assays with 80 known pharmacologic targets; settings: screened at 10 μM
[17] = GLP functional observation battery in rats; format: in vivo; settings: doses through 300 mg/kg
Description: as §2

[18] = Glutathione binding and depletion in vitro
[19] = biological target: CYP3A4 (Homo sapiens, UniProt P08684); assay: In vitro loss of parent drug as catalyzed by CYPs; format: in vitro ADME
Chain of CYP3A4 (P08684 whole entry): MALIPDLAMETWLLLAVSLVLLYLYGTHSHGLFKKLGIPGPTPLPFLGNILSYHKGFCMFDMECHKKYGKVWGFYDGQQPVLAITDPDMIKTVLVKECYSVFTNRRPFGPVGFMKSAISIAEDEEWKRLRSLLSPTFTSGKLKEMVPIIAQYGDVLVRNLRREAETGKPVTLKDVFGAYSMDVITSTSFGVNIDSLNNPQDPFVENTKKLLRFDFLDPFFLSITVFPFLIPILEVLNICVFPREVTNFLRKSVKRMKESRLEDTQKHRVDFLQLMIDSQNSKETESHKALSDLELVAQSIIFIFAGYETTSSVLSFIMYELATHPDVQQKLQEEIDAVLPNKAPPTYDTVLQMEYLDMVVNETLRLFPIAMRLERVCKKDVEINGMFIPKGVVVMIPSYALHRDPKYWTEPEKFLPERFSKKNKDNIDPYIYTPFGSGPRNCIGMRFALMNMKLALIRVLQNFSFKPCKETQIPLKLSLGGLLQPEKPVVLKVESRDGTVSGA

[20] = test system: canine spontaneous B-cell lymphoma; settings: out of 8 dogs treated; Honigberg et al. 2010; cited from earlier work
[21] = within the tested dose range; cited from earlier work
[22] = test system: Raji cells; assay: Rituximab ADCC 51Cr release, healthy donor NK cells vs Raji cells; format: cell-based, human; settings: 1 μM, E:T 25:1

C=CC(=O)Nc1cccc(Nc2nc(Nc3ccc(OCCOC)cc3)ncc2F)c1 [CC-292, N-(3-((5-fluoro-2-((4-(2-methoxyethoxy)phenyl)amino)pyrimidin-4-yl)amino)phenyl)acrylamide, reference compound]
effect on human platelet-mediated thrombus formation [1]: effect similar to ibrutinib

CC#CC(=O)N1CCC[C@H]1c1nc(-c2ccc(C(=O)Nc3ccccn3)cc2)c2c(N)nccn12 [Formula (II), (S)-4-(8-amino-3-(1-(but-2-ynoyl)pyrrolidin-2-yl)imidazo[1,5-a]pyrazin-1-yl)-N-(pyridin-2-yl)benzamide]
effect on Th17 cells [2]: no adverse effect | reduction of rituximab-stimulated NK cell degranulation [3]: < 2% | inhibition of GPVI platelet aggregation [4]: does not | IC50 ([4]; Homo sapiens, Platelet, FIG. 16): 1150 nM | unique human metabolite ([5]; hepatocytes): No unique human metabolite was identified | metabolites in hepatocytes ([5]; mouse, rat, dog, rabbit, monkey, human hepatocytes): two mono-oxidized metabolites and a glutathione conjugate | drug-drug interaction potential via CYP enzymes [6]: very unlikely to cause clinical drug-drug interactions | metabolic processes [7]: oxidation, glutathione binding, and hydrolysis | in vivo potency at inhibiting expression of activation markers CD69 and CD86 [8]: more potent at inhibiting expression of activation makers than ibrutinib | drug-related adverse events [9]: No drug-related adverse events | partial remission (PR) ([9]; average 22 days, preliminary): 2 of 6 | body temperature, cardiovascular, or ECG (including QT interval) parameters [10]: no meaningful changes | inhibition of in vitro EGFR phosphorylation [11]: no inhibition | respiratory function [12]: no treatment-related adverse effects | effect on Treg development [13]: no adverse effects; also recorded: no effect | frequency of NK cells and monocytic MDSC subsets in peripheral blood [14]: increase in frequency in the peripheral blood | Grade of Diarrhea ([15]; All (N = 44)): 1 | Grade of Headache ([15]; All (N = 44)): ½ | Grade of Increased tendency to bruise ([15]; All (N = 44)): 1 | Grade of Petechiae ([15]; All (N = 44)): 1 | Treatment-related adverse event: Diarrhea ([15]; All (N = 44)): 4 (9) n (%) | Treatment-related adverse event: Headache ([15]; All (N = 44)): 7 (16) n (%) | Treatment-related adverse event: Increased tendency to bruise ([15]; All (N = 44)): 6 (14) n (%) | Treatment-related adverse event: Petechiae ([15]; All (N = 44)): 3 (7) n (%) | progression-free survival (PFS) in comparison to ibrutinib ([15]; Kaplan-Meier, Log-Rank p-value 0.0206): An improvement in survival and a reduction in risk | MTD ([15]; relapsed/refractory CLL): not reached | dose-limiting toxicities (DLTs) ([15]; relapsed/refractory CLL): No DLTs were observed | grade of AEs observed ([15]; relapsed/refractory CLL): only grade 1 AEs were observed | lymphocytosis ([15]; relapsed/refractory CLL): A lack of lymphocytosis | treatment-related serious adverse events (SAEs) ([15]; relapsed/refractory CLL): No treatment-related serious adverse events (SAEs) were observed | progression in patients with 17p deletion ([15]; to date): no 17p patients have progressed | activity in binding screen of 80 targets [16]: significant activity only against the A3 adenosine receptor | effect on human platelet-mediated thrombus formation [1]: no significant effect | neurobehavioral effects or body temperature [17]: no adverse effects | glutathione binding / depletion [18]: binds to glutathione but does not deplete glutathione | CYP responsible for metabolism [19]: metabolized by CYP3A4

C=CC(=O)N1CCC[C@@H](n2nc(-c3ccc(Oc4ccccc4)cc3)c3c(N)ncnc32)C1 [Ibrutinib, 1-[(3R)-3-[4-amino-3-(4-phenoxyphenyl)-1H-pyrazolo[3,4-d]pyrimidin-1-yl]piperidin-1-yl]prop-2-en-1-one, reference compound]
effect on Th17 cells [2]: profound inhibition of Th17 cells; also recorded: strongly inhibits Th17 cells | inhibition of GPVI platelet aggregation [4]: significantly inhibits GPVI platelet aggregation | dogs with PR [20]: 3 dogs | maximum tolerated dose (MTD) [21]: No maximum tolerated dose (MTD) was apparent | effect on Treg development [13]: increase in Treg development; also recorded: strongly increases Treg development | effect on rituximab-mediated ADCC against Raji cells [22]: strongly inhibited
